Assay results as given in US12552783B2, “Modulators of proteolysis and associated methods of use” (Arvinas Operations, Inc., priority 2018, dated 2026).

Biological target: KRas (Homo sapiens, UniProt P01116, G12C)
Assay: KRas degradation in SW1573 cells by Western blot, normalized to GAPDH (data of Table 14)
Assay type: cell-based
Settings: SW1573 cells
Method in brief: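 SW1573 cells, homozygous for the KRas G12C mutation and maintained in DMEM with 10% FBS and 1% penicillin-streptomycin, were seeded in 12-well plates, allowed to attach overnight at 37° C. under 5% CO2, then serum-starved for 24 hours before compound exposure. KRas levels were measured by Western blot, normalized to GAPDH, and compared with DMSO controls to give percent degradation, DC50 and Dmax.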

Measured: Percent Degradation at Indicated Concentration (μM)

C=CC(=O)N1CCN(c2nc(O[C@H](C)CN3CCC(OCCOCCOCCOc4cc(-c5scnc5C)ccc4CNC(=O)[C@@H]4C[C@@H](O)CN4C(=O)[C@H](c4cc(C)no4)C(C)C)CC3)nc3c2CCN(c2cc(O)cc4ccccc24)C3)CC1 [compound 441, (2S,4R)-N-(2-(2-(2-(2-((1-((R)-2-((4-(4-acryloylpiperazin-1-yl)-7-(3-hydroxynaphthalen-1-yl)-5,6,7,8-tetrahydropyrido[3,4-d]pyrimidin-2-yl)oxy)propyl)piperidin-4-yl)oxy)ethoxy)ethoxy)ethoxy)-4-(4-methylthiazol-5-yl)benzyl)-4-hydroxy-1-((S)-3-methyl-2-(3-methylisoxazol-5-yl)butanoyl)pyrrolidine-2-carboxamide]
C (Percent Degradation: C ≤ 35): 0.1 μM | 0.3 μM | 1 μM

C=CC(=O)N1CCN(c2nc(O[C@H](C)CN3CCC(OCCOCCOCCOCCOc4cc([C@H](C(=O)N5C[C@H](O)C[C@H]5C(=O)N[C@@H](C)c5ccc(-c6scnc6C)cc5)C(C)C)on4)CC3)nc3c(F)c(-c4cc(O)cc5ccccc45)c(Cl)cc23)CC1 [compound 530, (2S,4R)-1-((2R)-2-(3-(2-(2-(2-(2-((1-((2R)-2-((4-(4-acryloylpiperazin-1-yl)-6-chloro-8-fluoro-7-(3-hydroxynaphthalen-1-yl)quinazolin-2-yl)oxy)propyl)piperidin-4-yl)oxy)ethoxy)ethoxy)ethoxy)ethoxy)isoxazol-5-yl)-3-methylbutanoyl)-4-hydroxy-N-((S)-1-(4-(4-methylthiazol-5-yl)phenyl)ethyl)pyrrolidine-2-carboxamide]
C (Percent Degradation: C ≤ 35): 0.03 μM | 0.1 μM | 0.3 μM

C=CC(=O)N1CCN(c2nc(O[C@H](C)CN3CCC(OCCOCCOCCOCCOc4cc(-c5scnc5C)ccc4CNC(=O)[C@@H]4C[C@@H](O)CN4C(=O)[C@H](c4cc(C)no4)C(C)C)CC3)nc3c2CCN(c2cc(O)cc4ccccc24)C3)CC1 [compound 443, (2S,4R)-N-(2-(2-(2-(2-(2-((1-((R)-2-((4-(4-acryloylpiperazin-1-yl)-7-(3-hydroxynaphthalen-1-yl)-5,6,7,8-tetrahydropyrido[3,4-d]dipyrimidin-2-yl)oxy)propyl)piperidin-4-yl)oxy)ethoxy)ethoxy)ethoxy)ethoxy)-4-(4-methylthiazol-5-yl)benzyl)-4-hydroxy-1-((S)-3-methyl-2-(3-methylisoxazol-5-yl)butanoyl)pyrrolidine-2-carboxamide]
C (Percent Degradation: C ≤ 35): 0.1 μM | 0.3 μM | 1 μM

Cc1ncsc1-c1ccc([C@H](C)NC(=O)[C@@H]2C[C@@H](O)CN2C(=O)[C@@H](NC(=O)COCCOCCOCCOCCOCCOC2CCN(C[C@@H](C)Oc3nc(N4CCN(C(=O)C(O)O)CC4)c4cc(Cl)c(-c5cc(O)cc6ccccc56)c(F)c4n3)CC2)C(C)(C)C)cc1 [compound 248, (2S,4R)-1-((2S)-2-(tert-butyl)-20-((1-((2R)-2-((6-chloro-4-(4-(2,2-dihydroxyacetyl)piperazin-1-yl)-8-fluoro-7-(3-hydroxynaphthalen-1-yl)quinazolin-2-yl)oxy)propyl)piperidin-4-yl)oxy)-4-oxo-6,9,12,15,18-pentaoxa-3-azaicosanoyl)-4-hydroxy-N-((S)-1-(4-(4-methylthiazol-5-yl)phenyl)ethyl)pyrrolidine-2-carboxamide]
C (Percent Degradation: C ≤ 35): 0.3 μM | 1 μM | 3 μM

C=CC(=O)N1CCN(c2nc(O[C@H](C)CN3CCC(OCCOCCOCCOCCOc4cc([C@@H](C(=O)N5C[C@H](O)C[C@H]5C(=O)N[C@@H](C)c5ccc(-c6scnc6C)cc5)C(C)C)on4)CC3)nc3c(F)c(-c4cc(O)cc5ccccc45)c(Cl)cc23)CC1 [compound 531, (2S,4R)-1-((2S)-2-(3-(2-(2-(2-(2-((1-((2R)-2-((4-(4-acryloylpiperazin-1-yl)-6-chloro-8-fluoro-7-(3-hydroxynaphthalen-1-yl)quinazolin-2-yl)oxy)propyl)piperidin-4-yl)oxy)ethoxy)ethoxy)ethoxy)ethoxy)isoxazol-5-yl)-3-methylbutanoyl)-4-hydroxy-N-((S)-1-(4-(4-methylthiazol-5-yl)phenyl)ethyl)pyrrolidine-2-carboxamide]
C (Percent Degradation: C ≤ 35): 0.03 μM | 0.1 μM | 0.3 μM

C=CC(=O)N1CCN(c2nc(O[C@H](C)CN3CCC(OCCOCCOCCOCCOCCOc4cc(-c5scnc5C)ccc4CNC(=O)[C@@H]4C[C@@H](O)CN4C(=O)[C@H](c4cc(C)no4)C(C)C)CC3)nc3c2CCN(c2cc(O)cc4ccccc24)C3)CC1 [compound 444]
C (Percent Degradation: C ≤ 35): 0.1 μM | 0.3 μM | 1 μM

C=CC(=O)N1CCN(c2nc(OC[C@@H]3C[C@@H](OCCOCCOCCOCCOCC(=O)N[C@H](C(=O)N4C[C@H](O)C[C@H]4C(=O)N[C@@H](C)c4ccc(-c5scnc5C)cc4)C(C)(C)C)CN3C)nc3c2CCN(c2cccc4ccccc24)C3)C[C@@H]1CC#N [compound 480]
C (Percent Degradation: C ≤ 35): 0.1 μM | 0.3 μM | 1 μM

C=CC(=O)N1CCN(c2nc(O[C@H](C)CN3CCC(OCCOCCOc4ccc5c(c4)C(=O)N(C4CCC(=O)NC4=O)C5=O)CC3)nc3c2CCN(c2cc(O)cc4ccccc24)C3)CC1 (stereo partly drawn) [compound 417, 5-(2-(2-((1-((R)-2-((4-(4-acryloylpiperazin-1-yl)-7-(3-hydroxynaphthalen-1-yl)-5,6,7,8-tetrahydropyrido[3,4-d]pyrimidin-2-yl)oxy)propyl)piperidin-4-yl)oxy)ethoxy)ethoxy)-2-(2,6 dioxopiperidin-3-yl)isoindoline-1,3-dione]
C (Percent Degradation: C ≤ 35): 0.1 μM | 0.3 μM | 1 μM

C=CC(=O)N1CCN(c2nc(O[C@H](C)CN3CCC(OCCOCCOCCOCCOCC(=O)N[C@H](C(=O)N4C[C@H](O)C[C@H]4C(=O)N[C@@H](C)c4ccc(-c5scnc5C)cc4)C(C)(C)C)CC3)nc3c2CCN(c2cc(O)cc4ccccc24)C3)CC1 [compound 409]
C (Percent Degradation: C ≤ 35): 0.1 μM | 0.3 μM | 1 μM
